Source: the supplement of paper PMC10307832

Tests used:
Assay in all cases: relative viability (nuclei count vs DMSO), 5 days (fraction); higher = more cells survive
[1] = compound: COc1ccc(-c2ccc3c(N4CCOC[C@@H]4C)nc(N4CCOC[C@@H]4C)nc3n2)cc1CO [AZD8055] + CS(=O)(=O)CCNCc1ccc(-c2ccc3ncnc(Nc4ccc(OCc5cccc(F)c5)c(Cl)c4)c3c2)o1 [Lapatinib] (partner 2 µM)
How it was run: (§1)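 Relative viability was taken as the ratio of nuclei in treated wells to nuclei in vehicle wells. Lung cancer cell lines in 1536-well plates received compounds by pin tool one day after seeding, either one drug alone or a fixed anchor-drug dose plus five library-drug doses (not always all listed) in √10 steps. Nuclei were counted on 4× images after 5 days of treatment, and values are medians of duplicate plates.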

[2] = compound: COc1ccc(-c2ccc3c(N4CCOC[C@@H]4C)nc(N4CCOC[C@@H]4C)nc3n2)cc1CO [AZD8055] + C[C@@H](Oc1cc(-c2cnn(C3CCNCC3)c2)cnc1N)c1c(Cl)ccc(F)c1Cl [Crizotinib] (partner 1 µM)
How it was run: as §1

[3] = compound: COc1ccc(-c2ccc3c(N4CCOC[C@@H]4C)nc(N4CCOC[C@@H]4C)nc3n2)cc1CO [AZD8055] + Cc1nc(Nc2ncc(C(=O)Nc3c(C)cccc3Cl)s2)cc(N2CCN(CCO)CC2)n1 [Dasatinib] (partner 0.075 µM)
How it was run: as §1

[4] = compound: COc1ccc(-c2ccc3c(N4CCOC[C@@H]4C)nc(N4CCOC[C@@H]4C)nc3n2)cc1CO [AZD8055] + Nc1nc2[nH]cc(CCc3ccc(C(=O)N[C@@H](CCC(=O)O)C(=O)O)cc3)c2c(=O)[nH]1 [Pemetrexed] (partner 0.2 µM)
How it was run: as §1

## NCI-H1355
[1]; first compound 0.01 µM
  relative viability: 0.866
[1]; first compound 0.03162 µM
  relative viability: 0.78
[1]; first compound 0.1 µM
  relative viability: 0.703
[1]; first compound 0.3162 µM
  relative viability: 0.257
[1]; first compound 1 µM
  relative viability: 0.274
[2]; first compound 0.01 µM
  relative viability: 1.12
[2]; first compound 0.03162 µM
  relative viability: 0.851
[2]; first compound 0.1 µM
  relative viability: 0.587
[2]; first compound 0.3162 µM
  relative viability: 0.231
[2]; first compound 1 µM
  relative viability: 0.231
[3]; first compound 0.01 µM
  relative viability: 0.551
[3]; first compound 0.03162 µM
  relative viability: 0.443
[3]; first compound 0.1 µM
  relative viability: 0.435
[3]; first compound 0.3162 µM
  relative viability: 0.218
[3]; first compound 1 µM
  relative viability: 0.263
[4]; first compound 0.01 µM
  relative viability: 1.06
[4]; first compound 0.03162 µM
  relative viability: 0.91
[4]; first compound 0.1 µM
  relative viability: 0.772
[4]; first compound 0.3162 µM
  relative viability: 0.316
[4]; first compound 1 µM
  relative viability: 0.235

## NCI-H1975
[1]; first compound 0.01 µM
  relative viability: 1.04
[1]; first compound 0.03162 µM
  relative viability: 0.601
[1]; first compound 0.1 µM
  relative viability: 0.468
[1]; first compound 0.3162 µM
  relative viability: 0.273
[1]; first compound 1 µM
  relative viability: 0.251
[2]; first compound 0.01 µM
  relative viability: 0.943
[2]; first compound 0.03162 µM
  relative viability: 0.959
[2]; first compound 0.1 µM
  relative viability: 0.515
[2]; first compound 0.3162 µM
  relative viability: 0.386
[2]; first compound 1 µM
  relative viability: 0.254
[3]; first compound 0.01 µM
  relative viability: 0.34
[3]; first compound 0.03162 µM
  relative viability: 0.265
[3]; first compound 0.1 µM
  relative viability: 0.129
[3]; first compound 0.3162 µM
  relative viability: 0.132
[3]; first compound 1 µM
  relative viability: 0.135
[4]; first compound 0.01 µM
  relative viability: 0.311
[4]; first compound 0.03162 µM
  relative viability: 0.301
[4]; first compound 0.1 µM
  relative viability: 0.264
[4]; first compound 0.3162 µM
  relative viability: 0.206
[4]; first compound 1 µM
  relative viability: 0.167

## LK-2
[1]; first compound 0.01 µM
  relative viability: 0.801
[1]; first compound 0.03162 µM
  relative viability: 0.55
[1]; first compound 0.1 µM
  relative viability: 0.47
[1]; first compound 0.3162 µM
  relative viability: 0.198
[1]; first compound 1 µM
  relative viability: 0.17
[2]; first compound 0.01 µM
  relative viability: 0.231
[2]; first compound 0.03162 µM
  relative viability: 0.188
[2]; first compound 0.1 µM
  relative viability: 0.267
[2]; first compound 0.3162 µM
  relative viability: 0.205
[2]; first compound 1 µM
  relative viability: 0.211
[3]; first compound 0.01 µM
  relative viability: 0.215
[3]; first compound 0.03162 µM
  relative viability: 0.188
[3]; first compound 0.1 µM
  relative viability: 0.175
[3]; first compound 0.3162 µM
  relative viability: 0.185
[3]; first compound 1 µM
  relative viability: 0.185
[4]; first compound 0.01 µM
  relative viability: 0.234
[4]; first compound 0.03162 µM
  relative viability: 0.185
[4]; first compound 0.1 µM
  relative viability: 0.138
[4]; first compound 0.3162 µM
  relative viability: 0.137
[4]; first compound 1 µM
  relative viability: 0.11

## NCI-H661
[1]; first compound 0.01 µM
  relative viability: 0.434
[1]; first compound 0.03162 µM
  relative viability: 0.43
[1]; first compound 0.1 µM
  relative viability: 0.414
[1]; first compound 0.3162 µM
  relative viability: 0.307
[1]; first compound 1 µM
  relative viability: 0.256
[2]; first compound 0.01 µM
  relative viability: 1.06
[2]; first compound 0.03162 µM
  relative viability: 1.1
[2]; first compound 0.1 µM
  relative viability: 1.07
[2]; first compound 0.3162 µM
  relative viability: 0.634
[2]; first compound 1 µM
  relative viability: 0.567
[3]; first compound 0.01 µM
  relative viability: 0.845
[3]; first compound 0.03162 µM
  relative viability: 0.867
[3]; first compound 0.1 µM
  relative viability: 0.633
[3]; first compound 0.3162 µM
  relative viability: 0.368
[3]; first compound 1 µM
  relative viability: 0.305
[4]; first compound 0.01 µM
  relative viability: 1.02
[4]; first compound 0.03162 µM
  relative viability: 0.882
[4]; first compound 0.1 µM
  relative viability: 0.868
[4]; first compound 0.3162 µM
  relative viability: 0.579
[4]; first compound 1 µM
  relative viability: 0.418
